Source: patent US20070123569A1, “THERAPEUTIC METHODS USING PROSTAGLANDIN EP4 AGONIST COMPONENTS” (ALLERGAN, INC., priority 2005, published 2007)

Experiments:
[1] = tested on: AGS cells; assay: Indomethacin-induced apoptosis of AGS gastric epithelial cells (flow cytometry); type: cell-based; conditions: FIG. 2
Method: Studies similar to those described for Examples 38 to 40 were conducted on cultured human gastric epithelial cells. This cell line, designated as AGS, was purchased from ATCC. […] Prostaglandin EP4 agonist 1 was given at four different concentrations to separate samples of the cells in a serum-free medium. One hour later, indomethacin at 400 μM was added into the culture medium in three of the samples to induce apoptosis of the AGS cells. Twenty four (24) hours after the addition of indomethacin, the cells were collected and processed for flow cytometry analysis. Ten thousand (10,000) cells were sorted for each sample, and the percentage of apoptotic cells was calculated.

[2] = tested on: IEC-18 cells; assay: Indomethacin-induced apoptosis of IEC-18 cells (flow cytometry); type: cell-based, rat; conditions: 24 h, FIG. 1
Method: Rat ileum epithelial cells identified as IEC-18, were purchased from ATCC. The cells were seeded and cultured overnight. In three (3) series of tests, each of PGE2, prostaglandin EP4 agonist 1 and prostaglandin EP4 agonist prodrug 3 was given at one or two concentrations to separate samples of the cells in a serum-free medium. One hour later, the non-steroidal anti-inflammatory drug (NSAID) indomethacin at 100 μM was added into the culture medium to induce apoptosis of the IEC-18 cells. Twenty four (24) hours after the addition of indomethacin, the cells were collected and processed for flow cytometry analysis. Ten thousand (10,000) cells were sorted for each sample, and the percentage of apoptotic cells was calculated.

[3] = tested on: gastric mucous cells; assay: BrdU immunostaining of stomach tissue sections from indomethacin-dosed mice; type: in vivo, mouse; conditions: given prior to indomethacin, FIG. 7
Method: Each of prostagiandin EP4 agonist 1 and PGE 1 analog Misoprostol was given to C57BL/6 mice at two or three concentrations. Twenty four (24) hours and 30 minutes later, the NSAID indomethacin was given at 20 mg/kg to induce stomach lesions and stomach inflammation. Twenty four (24) hours after indomethacin dosing, the mice were sacrificed and the stomach lesions were scored histopathologically and by gross lesion count.
BrdU immunostaining was performed on stomach tissue sections from mice treated with the prostaglandin EP4 agonist 1 and the PGE1 analog Misoprostol. Incorporation of BrdU label, as detected with positive BrdU immunostaining, is indicative of cell growth/regeneration. The abilities of prostaglandin EP4 agonist 1 and the PGE1 analog Misoprostol to regenerate gastric epithelial cells when given prior to indomethacin dosing were compared. The mean percentages of BrdU label incorporated cells in stomach tissue sections and the standard errors of the means from both treatments are shown in FIG. 7.

## COc1ccc2c(c1)c(CC(=O)O)c(C)n2C(=O)c1ccc(Cl)cc1 [Indomethacin, indomethacin, reference compound]
[1]; indomethacin 400 μM, 24 h
  apoptosis induced by indomethacin itself: about 30%

## CCCCC[C@H](O)/C=C/[C@H]1[C@H](O)CC(=O)[C@@H]1C/C=C\CCCC(=O)O [PGE2, prostaglandin E2, reference compound]
[2]; serum-free medium, indomethacin 100 μM added 1 h after compound
  reduction of indomethacin-induced apoptosis: about 65%

## CC1(C)C(=O)[C@H](C/C=C\CCCC(=O)O)[C@@H](/C=C/C(O)CCc2sc3ccccc3c2Cl)[C@@H]1O (stereo partly drawn) [prostaglandin EP4 agonist 1]
[3]
  restoration of regenerative ability of gastric mucous cells, BrdU label (in words): significant restoration
[3]; maximum dose employed
  restoration of regenerative ability of gastric mucous cells injured by indomethacin (BrdU label): about 25%
[1]; serum-free medium
  apoptosis or cell death with the agonist alone (no indomethacin): very little or substantially no apoptosis or cell death
[2]; indomethacin 100 μM
  effect on indomethacin-induced apoptosis (in words): reduced indomethacin-induced apoptosis significantly
